Test results reported in US12629345B2, “Methods, compositions, and devices for drug / live cell microarrays” (Pathak Holdings LLC, priority 2013, dated 2026).
“Also recorded” adds a separate entry of the source. Structures can show the parent of a compound that is named as a salt. Each block holds one compound with its values, some of them ahead of it.

Legend:
Format in all cases: physicochemical
[1] = Bupivacaine hydrochloride release from in situ PLGA implant with and without magnesium carbonate filler; details: FIG. 21B
Experimental: 100.2 mg PDLG 5002 polymer is dissolved in 1.0 ml DMSO. 10 microliters of methylene blue stock solution (10 mg methylene blue in 2 ml DMSO) is added to the polymer solution as a colorant. Infusion solutions are prepared using the following method: 15.2 mg bupivacaine hydrochloride and 0.50 ml polymer solution are mixed until drug is completely dissolved. 50 mg magnesium carbonate powder (fine powder sieved to collect fraction below 300 microns in size) is added as a biocompatible and biodegradable filler in the drug solution and the mixture is vigorously vortexed for 5 minutes. The magnesium carbonate suspension is infused/tattooed using an oscillating needle in 1 cm square area of sheep skin tissue. Excess solution from the tattooed surface is wiped off. The light blue tattoo with magnesium particles is clearly seen the by unaided naked eye.
Similarly, a polymer solution without magnesium carbonate is prepared and infused/tattooed in the sheep skin tissue as above. The infused tissue sample is cut and used in controlled release experiment.
The cut samples are placed in 3 mL of PBS (pH 7.4). The drug eluted PBS is collected at several time points. Fresh PBS is added to replace the eluted PBS solution. The collected PBS is analyzed using a UV spectrophotometer to determine the drug concentration.

[2] = Rifampin release from encapsulated microspheres in microimplant array in sheep skin tissue; details: PLGA microspheres in glycerol, 33 MP array, PBS 37 degree C., FIG. 14
Experimental: Rifampin containing red/yellow microspheres are prepared using spray drying method or prepared according to Example 3. Microspheres are prepared using PLGA polymer (PDLG 5002 from Purac) polymer with 20 percent rifampin loading relative to the polymer plus drug weight. Control PLGA microspheres without rifampin are prepared under identical spry drying conditions. 4.9 mg of rifampin encapsulated microspheres are suspended in 0.25 ml glycerol. One/two drops of the suspension are added on the 2 by 2 cm glutaraldehyde fixed sheep tissue. The 33 MP microarray needles are pressed on the tissue via rifampin suspension to create 3 by 3 micro array cavities and infuse the cavities with the rifampin microspheres. The procedure is repeated 9 times on the same tissue at different locations to create 135 micro cavities loaded with rifampin microspheres. The excess suspension is wiped of using tissue paper. No loosely adherent microspheres in the tissue are noticed. The glycerol in the suspension is dissipated in the tissue leaving behind the microspheres in the cavities. […] The rifampin treated tissue and control tissue are incubated at 37 degree C. in 3 ml PBS and rifampin in treated and control samples is monitored at various time points. Rifampin concentration in the eluted samples is analyzed using UV-VIS spectrophotometer (wavelength 474 nm).

[3] = Bupivacaine base release from PLGA microimplants formed with oscillating needle in bovine pericardium; details: PDLG 5002 in DMSO infused by oscillating needle, PBS 37 degree C.
Experimental: Oscillating needle such as tattoo needle may be used to create cavities in the tissue or skin. A commercial tattoo machine as described in the related application (U.S. Pat. No. 9,072,678, cited herein for reference only) is used. The 500-1000 micron size tattoo needle is used and the oscillation frequency was 10 to 12000 oscillations per minute. About 1 square centimeter area was treated with the tattoo needle for 1 minute. The pores created by the tattoo machine repeated needle insertion were used to fill the injectable composition such PLGA solutions with the drug as described before. Alternatively, polymer solution is first applied on the tissue surface to form a solution layer and then the tattoo needle is used to create holes through the solution. The needle goes in and out of the tissue surface and carries the solution with it inside the cavity created. The deposited solution inside the cavity is precipitated by the tissue fluids and the precipitated polymer releases the drug in a sustained manner. Additional information about tattoo based methods can be found on related applications cited herein for reference only. […] The concentration of bupivacaine in the eluted samples is monitored using UV spectrophotometer. […]

- duration of release of bupivacaine hydrochloride ([1]; PLGA array implant without magnesium carbonate): one to two days
Compound: CCCCN1CCCCC1C(=O)Nc1c(C)cccc1C (centres unmarked) [bupivacaine hydrochloride]
- duration of release of bupivacaine hydrochloride ([1]; PLGA array implant with magnesium carbonate filler, hydrochloride): several days; also recorded: much longer sustained release

- release of rifampin from microspheres in microimplant array [2]: sustained release
Compound: CO[C@H]1/C=C/O[C@@]2(C)Oc3c(C)c(O)c4c(O)c(c(/C=N/N5CCN(C)CC5)c(O)c4c3C2=O)NC(=O)/C(C)=C\C=C\[C@H](C)[C@H](O)[C@@H](C)[C@@H](O)[C@@H](C)[C@H](OC(C)=O)[C@@H]1C [rifampin]

- sustained release of bupivacaine base from in situ formed implant ([3]; FIG. 13): several days
Compound: CCCCN1CCCCC1C(=O)Nc1c(C)cccc1C (centres unmarked) [bupivacaine base, bupivacaine]
- sustained release of bupivacaine base from in situ formed implant ([3]; FIG. 13, listed as bupivacaine): released in a sustained manner; also recorded: few days
